From ChEMBL document CHEMBL1201862, “PubChem BioAssay data set” (2004)
Activity calls are given as the source filed them.

Columns and labels:
Cytochrome P450 2D6 = Cytochrome P450 2D6 (Homo sapiens, UniProt P10635);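 further: CYP2D6 member of a cytochrome P450 panel assay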
[1] = tested on: Streptococcus sp. 'group A'; assay: Streptococcus pyogenes SK(-)GAS viability under kanamycin – luminescence, BacTiterGlo, confirmation, counter-screen for streptokinase expression inhibitor project, dose response (AID 1900); type: functional, organism-based
Cytochrome P450 3A4 = Cytochrome P450 3A4 (Homo sapiens, UniProt P08684);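 further: CYP3A4 tested as one member of a cytochrome P450 panel screen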
Streptokinase A = target: T1, Streptokinase A (Streptococcus pyogenes serotype M1, UniProt P10520); assay: viability-normalized secreted streptokinase activity reduction – plasminogen activation absorbance, OD405, dose response (AID 1914); type: functional, Streptococcus pyogenes M1 GAS;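 further: secreted streptokinase activity via plasminogen activation per viability signal from cell pellet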
T1 sequence (P10520 whole entry): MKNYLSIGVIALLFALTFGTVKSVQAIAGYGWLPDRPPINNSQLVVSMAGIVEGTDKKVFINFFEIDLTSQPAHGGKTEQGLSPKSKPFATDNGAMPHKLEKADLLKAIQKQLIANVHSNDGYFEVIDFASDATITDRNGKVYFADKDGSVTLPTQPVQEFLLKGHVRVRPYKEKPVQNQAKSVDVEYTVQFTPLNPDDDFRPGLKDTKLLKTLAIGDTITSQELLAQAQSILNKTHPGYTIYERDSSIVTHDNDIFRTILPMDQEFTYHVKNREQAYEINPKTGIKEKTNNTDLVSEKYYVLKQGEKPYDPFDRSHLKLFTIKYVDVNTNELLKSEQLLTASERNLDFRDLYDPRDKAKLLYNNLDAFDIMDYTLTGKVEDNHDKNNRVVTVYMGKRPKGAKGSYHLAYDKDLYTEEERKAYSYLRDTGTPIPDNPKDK

Streptococcus = assay: GAS UMAA2166 growth inhibition – luminescence, BacTiterGlo, counter-screen for streptokinase expression inhibitor project, dose response (AID 1915); type: functional, organism-based;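 further: potency for reduction of bacterial viability or growth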
[2] = target: Peroxisome proliferator-activated receptor gamma/Nuclear receptor coactivator 1 (Homo sapiens, UniProt P37231); assay: (§1) TR-FRET dose response biochemical High Throughput Screening assay for agonists of the steroid receptor coactivator 1 (SRC-1) recruitment by the peroxisome proliferator-activated receptor gamma (PPAR gamma): non-selective agonists. [Related pubchem assays (depositor defined):AID1300, AID1808, AID504735, AID631]; type: protein assay
[3] = target: Peroxisome proliferator-activated receptor gamma/Nuclear receptor coactivator 3 (Homo sapiens, UniProt P37231); assay: as §1, with “3 (SRC-3)” for “1 (SRC-1)”, “assays: 1301 (Confirmation screen.), 1048 (Primary screen.)]” for “assays (depositor defined):AID1300, AID1808, AID504735, AID631]”; type: functional
[4] = target: Peroxisome proliferator-activated receptor gamma/Nuclear receptor coactivator 2 (Homo sapiens, UniProt P37231); assay: TR-FRET dose response biochemical High Throughput Screening assay for agonists of the steroid receptor coactivator 2 (SRC-2) recruitment by the peroxisome proliferator-activated receptor gamma (PPAR gamma): non-selective agonists. [Related pubchem assays: 1297, 1032 ]; type: functional
Cytochrome P450 1A2 = target: T2, Cytochrome P450 1A2 (Homo sapiens, UniProt P05177);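 further: PubChem cytochrome P450 panel assay, CYP1A2 panel member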
T2 sequence (P05177 whole entry): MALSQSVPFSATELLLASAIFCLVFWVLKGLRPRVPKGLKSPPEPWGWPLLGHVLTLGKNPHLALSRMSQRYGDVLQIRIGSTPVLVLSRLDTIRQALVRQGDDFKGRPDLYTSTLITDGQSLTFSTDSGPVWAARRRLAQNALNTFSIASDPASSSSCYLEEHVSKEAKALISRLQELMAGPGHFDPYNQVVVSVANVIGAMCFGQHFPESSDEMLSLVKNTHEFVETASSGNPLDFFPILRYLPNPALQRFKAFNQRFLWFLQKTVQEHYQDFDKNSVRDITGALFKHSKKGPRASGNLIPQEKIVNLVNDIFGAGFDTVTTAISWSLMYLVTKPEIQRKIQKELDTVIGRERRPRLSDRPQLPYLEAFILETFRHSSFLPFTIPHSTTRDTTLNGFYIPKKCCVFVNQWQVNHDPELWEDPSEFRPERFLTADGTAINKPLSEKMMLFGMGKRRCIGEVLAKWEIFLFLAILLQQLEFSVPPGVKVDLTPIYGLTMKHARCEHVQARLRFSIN

Cytochrome P450 2C9 [5] = target: T3, Cytochrome P450 2C9 (Homo sapiens, UniProt P11712)
Cytochrome P450 2C19 = Cytochrome P450 2C19 (Homo sapiens, UniProt P33261); assay: Cytochrome panel assay with activity outcomes. Panel member name: p450-cyp2c19 Compounds with AC50 equal or less than 10 uM are considered active; type: functional; conditions: read-out: AC50
Caspase-3 = target: T4, Caspase-3 (Homo sapiens, UniProt P42574); type: functional;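 further: Dose-response selectivity test against caspase-3 for candidate inhibitors of sentrin-specific proteases (SENPs)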
T4 sequence (P42574 whole entry): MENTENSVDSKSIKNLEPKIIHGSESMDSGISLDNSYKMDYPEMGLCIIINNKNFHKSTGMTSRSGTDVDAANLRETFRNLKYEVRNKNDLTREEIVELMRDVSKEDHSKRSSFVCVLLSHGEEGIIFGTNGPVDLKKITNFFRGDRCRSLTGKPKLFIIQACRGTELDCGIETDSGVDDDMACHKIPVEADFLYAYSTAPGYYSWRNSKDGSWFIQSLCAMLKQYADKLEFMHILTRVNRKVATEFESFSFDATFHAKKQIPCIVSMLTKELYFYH

[6] = target: T5, Sentrin-specific protease 6 (Homo sapiens, UniProt Q9GZR1); type: functional;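 further: Luminescence-based dose-response confirmatory assay of SENP6 inhibition, following up an ultra-high-throughput screen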
T5 sequence (Q9GZR1 whole entry): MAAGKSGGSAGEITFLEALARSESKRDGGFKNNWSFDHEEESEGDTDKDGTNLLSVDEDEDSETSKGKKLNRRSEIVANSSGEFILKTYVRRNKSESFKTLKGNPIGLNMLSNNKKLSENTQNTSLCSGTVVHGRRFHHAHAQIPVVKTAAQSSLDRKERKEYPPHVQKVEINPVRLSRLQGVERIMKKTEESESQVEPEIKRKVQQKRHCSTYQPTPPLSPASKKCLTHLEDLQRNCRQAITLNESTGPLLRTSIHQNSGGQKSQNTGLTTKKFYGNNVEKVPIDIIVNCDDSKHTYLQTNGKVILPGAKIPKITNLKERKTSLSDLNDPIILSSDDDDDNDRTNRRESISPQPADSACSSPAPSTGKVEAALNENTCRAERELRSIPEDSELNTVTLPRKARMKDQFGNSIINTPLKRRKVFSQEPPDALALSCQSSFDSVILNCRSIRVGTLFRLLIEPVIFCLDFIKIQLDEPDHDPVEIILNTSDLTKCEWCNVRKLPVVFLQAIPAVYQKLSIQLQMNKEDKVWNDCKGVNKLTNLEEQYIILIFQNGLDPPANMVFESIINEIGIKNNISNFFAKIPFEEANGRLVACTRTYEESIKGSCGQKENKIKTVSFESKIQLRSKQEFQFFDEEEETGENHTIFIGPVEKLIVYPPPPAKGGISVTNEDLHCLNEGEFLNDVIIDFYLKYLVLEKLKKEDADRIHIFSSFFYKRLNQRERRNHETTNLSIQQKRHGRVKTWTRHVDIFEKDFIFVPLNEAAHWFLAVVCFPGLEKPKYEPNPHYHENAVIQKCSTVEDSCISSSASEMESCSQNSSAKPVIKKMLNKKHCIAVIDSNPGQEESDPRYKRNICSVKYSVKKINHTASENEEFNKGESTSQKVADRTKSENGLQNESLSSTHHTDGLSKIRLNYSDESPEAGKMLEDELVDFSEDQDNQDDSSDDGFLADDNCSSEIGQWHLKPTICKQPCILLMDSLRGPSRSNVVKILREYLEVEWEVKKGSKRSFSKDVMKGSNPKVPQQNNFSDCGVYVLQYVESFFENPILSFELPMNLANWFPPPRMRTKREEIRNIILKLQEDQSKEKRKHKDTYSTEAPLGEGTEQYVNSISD

[7] = target: T6, Sentrin-specific protease 8 (Homo sapiens, UniProt Q96LD8); type: functional;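 further: luminescence read-out of SENP8 inhibition, dose-response confirmation following an ultra-high-throughput screen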
T6 sequence (Q96LD8 whole entry): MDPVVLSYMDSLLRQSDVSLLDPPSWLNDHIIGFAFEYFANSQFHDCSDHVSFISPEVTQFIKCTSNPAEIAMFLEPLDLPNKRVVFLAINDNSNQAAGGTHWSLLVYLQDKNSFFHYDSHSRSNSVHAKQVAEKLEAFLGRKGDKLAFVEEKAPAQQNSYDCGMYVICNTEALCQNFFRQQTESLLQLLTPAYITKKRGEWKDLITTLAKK

[8] = target: T7, Sentrin-specific protease 7 (Homo sapiens, UniProt Q9BQF6); type: functional;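 further: Luminescence-based dose-response confirmation of ultra-high-throughput screening hits, measuring inhibition of SENP7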
T7 sequence (Q9BQF6 whole entry): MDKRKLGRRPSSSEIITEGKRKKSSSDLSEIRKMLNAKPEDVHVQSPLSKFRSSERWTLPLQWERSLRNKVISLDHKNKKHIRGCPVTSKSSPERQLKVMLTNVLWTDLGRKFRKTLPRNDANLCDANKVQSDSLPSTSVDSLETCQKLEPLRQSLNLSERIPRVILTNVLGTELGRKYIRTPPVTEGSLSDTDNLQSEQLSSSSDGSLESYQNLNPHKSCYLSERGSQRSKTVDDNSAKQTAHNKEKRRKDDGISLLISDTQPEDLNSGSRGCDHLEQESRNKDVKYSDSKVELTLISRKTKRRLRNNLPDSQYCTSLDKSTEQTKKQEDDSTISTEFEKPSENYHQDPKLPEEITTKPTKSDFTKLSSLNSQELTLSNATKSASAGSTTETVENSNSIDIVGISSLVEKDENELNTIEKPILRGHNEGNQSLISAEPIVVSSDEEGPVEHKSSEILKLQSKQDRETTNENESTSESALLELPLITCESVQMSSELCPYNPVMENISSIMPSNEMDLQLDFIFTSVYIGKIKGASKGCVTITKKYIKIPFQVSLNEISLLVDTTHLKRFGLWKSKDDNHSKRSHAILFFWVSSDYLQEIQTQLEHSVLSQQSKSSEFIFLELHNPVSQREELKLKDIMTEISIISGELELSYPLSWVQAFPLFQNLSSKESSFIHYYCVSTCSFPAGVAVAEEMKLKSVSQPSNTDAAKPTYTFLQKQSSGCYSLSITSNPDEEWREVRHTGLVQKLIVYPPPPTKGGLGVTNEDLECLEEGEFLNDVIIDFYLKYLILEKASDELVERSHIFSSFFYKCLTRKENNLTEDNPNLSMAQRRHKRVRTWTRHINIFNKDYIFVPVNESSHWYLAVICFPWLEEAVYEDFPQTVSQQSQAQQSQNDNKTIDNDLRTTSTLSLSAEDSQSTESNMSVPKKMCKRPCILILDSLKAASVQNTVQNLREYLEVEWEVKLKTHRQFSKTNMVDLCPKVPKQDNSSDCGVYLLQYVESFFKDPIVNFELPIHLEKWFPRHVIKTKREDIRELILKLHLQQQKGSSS

Cytochrome P450 2C9 [9] = target: T3, Cytochrome P450 2C9; remark: listed apart in the source
HEK293 = assay: EBV LMP1 TES2 canonical NF-kB signalling blockers – cell-based, HEK293, luciferase, cherry-pick, dose response (AID 588343); type: functional; conditions: Homo sapiens
[10] = NIH-3T3 fibroblast cytotoxicity, dose response, cytotoxicity control, cell-based, fluorescence, Alamar Blue, secondary assay (AID 2327); type: functional;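 further: NIH-3T3 mouse fibroblasts cultured with fluconazole at 8 µg/mL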
[11] = fluconazole-exposed Candida albicans growth modulators – fluorescence, retest, confirmation (AID 2467); type: functional, cell-based
[12] = non-specific 3'UTR reporter inhibition in Clone20-Shn3RL – cell-based, Renilla luciferase, cherry-picked, counter-screen for Shn3 inhibitor project, dose response (AID 624133); type: functional
[13] = loss of viability in HepG2 cells – cell-based, CellTiter-Glo, cherry-picked, cytotoxicity control for Shn3 inhibitor project, dose response (AID 624134); type: functional
[14] = reduction of Shn3 3'UTR-driven luciferase in osteoblasts – cell-based, Clone20 osteoblasts, firefly luciferase, cherry-picked, dose response (AID 624132); type: functional;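 further: firefly luciferase luminescence from reporter carrying the Shn3 3'UTR in osteoblasts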

T3 sequence (P11712 whole entry): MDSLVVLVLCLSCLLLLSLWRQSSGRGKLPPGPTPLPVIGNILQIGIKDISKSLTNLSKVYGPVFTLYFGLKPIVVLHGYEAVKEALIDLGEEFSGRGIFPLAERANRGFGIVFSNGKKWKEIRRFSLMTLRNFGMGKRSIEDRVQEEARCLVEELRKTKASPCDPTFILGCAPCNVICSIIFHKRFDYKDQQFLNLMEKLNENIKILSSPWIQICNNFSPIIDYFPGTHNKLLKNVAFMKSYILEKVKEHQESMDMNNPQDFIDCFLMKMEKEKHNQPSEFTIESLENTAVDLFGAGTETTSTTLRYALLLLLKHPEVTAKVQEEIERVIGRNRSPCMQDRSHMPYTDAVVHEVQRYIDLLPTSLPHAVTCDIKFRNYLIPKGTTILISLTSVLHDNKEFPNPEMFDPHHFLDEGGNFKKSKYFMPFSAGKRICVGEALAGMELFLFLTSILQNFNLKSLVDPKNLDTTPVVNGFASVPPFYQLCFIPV
Cytochrome P450 3A4, sequence (P08684 whole entry): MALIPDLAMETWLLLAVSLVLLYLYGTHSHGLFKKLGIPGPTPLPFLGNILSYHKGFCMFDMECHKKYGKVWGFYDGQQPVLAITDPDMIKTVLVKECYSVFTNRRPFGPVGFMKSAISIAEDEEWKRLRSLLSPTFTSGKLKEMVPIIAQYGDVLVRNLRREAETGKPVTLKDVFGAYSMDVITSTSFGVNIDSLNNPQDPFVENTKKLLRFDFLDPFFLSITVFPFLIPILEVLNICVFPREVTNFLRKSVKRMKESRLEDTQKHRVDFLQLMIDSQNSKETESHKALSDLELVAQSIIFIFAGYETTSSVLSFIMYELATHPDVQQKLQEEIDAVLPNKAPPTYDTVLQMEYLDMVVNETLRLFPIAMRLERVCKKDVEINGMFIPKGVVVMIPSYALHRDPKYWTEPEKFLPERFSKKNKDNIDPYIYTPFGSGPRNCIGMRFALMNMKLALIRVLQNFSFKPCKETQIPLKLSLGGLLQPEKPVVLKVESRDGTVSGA
Peroxisome proliferator-activated receptor gamma/Nuclear receptor coactivator 2, sequence (P37231 whole entry): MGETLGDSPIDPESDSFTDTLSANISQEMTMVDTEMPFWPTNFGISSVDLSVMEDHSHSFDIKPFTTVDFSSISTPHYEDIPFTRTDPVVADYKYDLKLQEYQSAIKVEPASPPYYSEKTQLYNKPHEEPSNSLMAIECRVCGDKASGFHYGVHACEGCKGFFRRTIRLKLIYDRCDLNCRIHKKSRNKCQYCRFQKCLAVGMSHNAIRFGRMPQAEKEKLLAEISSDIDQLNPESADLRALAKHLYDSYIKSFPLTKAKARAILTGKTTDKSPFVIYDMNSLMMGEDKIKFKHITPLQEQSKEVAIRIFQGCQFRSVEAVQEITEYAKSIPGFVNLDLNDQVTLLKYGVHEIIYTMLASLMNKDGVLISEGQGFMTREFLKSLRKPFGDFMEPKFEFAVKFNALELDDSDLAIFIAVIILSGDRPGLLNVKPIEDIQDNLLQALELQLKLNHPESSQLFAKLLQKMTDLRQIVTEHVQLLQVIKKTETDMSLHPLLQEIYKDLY
Peroxisome proliferator-activated receptor gamma/Nuclear receptor coactivator 2, sequence (Q15596 whole entry, further chain): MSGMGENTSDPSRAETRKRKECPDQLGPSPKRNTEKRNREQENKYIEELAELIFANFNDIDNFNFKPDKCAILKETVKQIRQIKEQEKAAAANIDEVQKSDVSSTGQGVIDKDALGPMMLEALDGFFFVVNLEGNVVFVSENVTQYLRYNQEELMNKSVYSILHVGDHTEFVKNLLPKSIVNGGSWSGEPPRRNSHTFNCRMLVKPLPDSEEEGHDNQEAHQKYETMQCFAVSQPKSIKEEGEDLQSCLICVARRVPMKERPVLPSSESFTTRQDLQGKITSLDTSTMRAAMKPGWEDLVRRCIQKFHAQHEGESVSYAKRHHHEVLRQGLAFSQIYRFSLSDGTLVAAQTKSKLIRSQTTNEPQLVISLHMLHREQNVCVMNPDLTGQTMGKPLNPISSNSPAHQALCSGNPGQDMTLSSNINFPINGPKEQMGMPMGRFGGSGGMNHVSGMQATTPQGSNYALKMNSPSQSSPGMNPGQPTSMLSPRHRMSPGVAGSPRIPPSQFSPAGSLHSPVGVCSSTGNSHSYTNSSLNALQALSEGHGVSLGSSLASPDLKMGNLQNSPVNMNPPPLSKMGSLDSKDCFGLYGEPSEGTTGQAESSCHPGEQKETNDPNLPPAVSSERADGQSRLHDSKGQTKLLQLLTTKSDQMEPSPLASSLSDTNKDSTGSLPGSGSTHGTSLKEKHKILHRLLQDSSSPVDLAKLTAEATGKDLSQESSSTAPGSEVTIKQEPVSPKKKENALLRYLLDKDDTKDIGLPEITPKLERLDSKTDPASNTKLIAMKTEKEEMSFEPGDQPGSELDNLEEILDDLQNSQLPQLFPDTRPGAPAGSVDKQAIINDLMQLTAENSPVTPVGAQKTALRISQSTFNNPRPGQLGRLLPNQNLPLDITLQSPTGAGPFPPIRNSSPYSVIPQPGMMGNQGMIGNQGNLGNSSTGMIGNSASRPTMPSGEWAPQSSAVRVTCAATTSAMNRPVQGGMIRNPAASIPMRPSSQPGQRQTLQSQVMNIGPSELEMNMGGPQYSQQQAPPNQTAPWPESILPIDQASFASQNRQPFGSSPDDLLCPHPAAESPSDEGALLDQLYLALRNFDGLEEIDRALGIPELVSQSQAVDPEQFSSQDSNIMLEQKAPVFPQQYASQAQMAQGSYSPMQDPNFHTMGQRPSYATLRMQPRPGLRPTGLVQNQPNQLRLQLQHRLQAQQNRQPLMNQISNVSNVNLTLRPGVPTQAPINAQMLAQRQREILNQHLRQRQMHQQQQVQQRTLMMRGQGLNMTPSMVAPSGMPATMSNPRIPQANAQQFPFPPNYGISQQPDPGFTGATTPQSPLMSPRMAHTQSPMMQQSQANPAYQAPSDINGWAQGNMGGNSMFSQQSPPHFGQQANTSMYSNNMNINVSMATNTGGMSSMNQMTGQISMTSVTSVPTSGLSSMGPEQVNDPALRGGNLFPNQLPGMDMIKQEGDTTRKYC
Peroxisome proliferator-activated receptor gamma/Nuclear receptor coactivator 3, sequence (P37231 whole entry): as the sequence (P37231 whole entry) above
Peroxisome proliferator-activated receptor gamma/Nuclear receptor coactivator 3, sequence (Q9Y6Q9 whole entry, further chain): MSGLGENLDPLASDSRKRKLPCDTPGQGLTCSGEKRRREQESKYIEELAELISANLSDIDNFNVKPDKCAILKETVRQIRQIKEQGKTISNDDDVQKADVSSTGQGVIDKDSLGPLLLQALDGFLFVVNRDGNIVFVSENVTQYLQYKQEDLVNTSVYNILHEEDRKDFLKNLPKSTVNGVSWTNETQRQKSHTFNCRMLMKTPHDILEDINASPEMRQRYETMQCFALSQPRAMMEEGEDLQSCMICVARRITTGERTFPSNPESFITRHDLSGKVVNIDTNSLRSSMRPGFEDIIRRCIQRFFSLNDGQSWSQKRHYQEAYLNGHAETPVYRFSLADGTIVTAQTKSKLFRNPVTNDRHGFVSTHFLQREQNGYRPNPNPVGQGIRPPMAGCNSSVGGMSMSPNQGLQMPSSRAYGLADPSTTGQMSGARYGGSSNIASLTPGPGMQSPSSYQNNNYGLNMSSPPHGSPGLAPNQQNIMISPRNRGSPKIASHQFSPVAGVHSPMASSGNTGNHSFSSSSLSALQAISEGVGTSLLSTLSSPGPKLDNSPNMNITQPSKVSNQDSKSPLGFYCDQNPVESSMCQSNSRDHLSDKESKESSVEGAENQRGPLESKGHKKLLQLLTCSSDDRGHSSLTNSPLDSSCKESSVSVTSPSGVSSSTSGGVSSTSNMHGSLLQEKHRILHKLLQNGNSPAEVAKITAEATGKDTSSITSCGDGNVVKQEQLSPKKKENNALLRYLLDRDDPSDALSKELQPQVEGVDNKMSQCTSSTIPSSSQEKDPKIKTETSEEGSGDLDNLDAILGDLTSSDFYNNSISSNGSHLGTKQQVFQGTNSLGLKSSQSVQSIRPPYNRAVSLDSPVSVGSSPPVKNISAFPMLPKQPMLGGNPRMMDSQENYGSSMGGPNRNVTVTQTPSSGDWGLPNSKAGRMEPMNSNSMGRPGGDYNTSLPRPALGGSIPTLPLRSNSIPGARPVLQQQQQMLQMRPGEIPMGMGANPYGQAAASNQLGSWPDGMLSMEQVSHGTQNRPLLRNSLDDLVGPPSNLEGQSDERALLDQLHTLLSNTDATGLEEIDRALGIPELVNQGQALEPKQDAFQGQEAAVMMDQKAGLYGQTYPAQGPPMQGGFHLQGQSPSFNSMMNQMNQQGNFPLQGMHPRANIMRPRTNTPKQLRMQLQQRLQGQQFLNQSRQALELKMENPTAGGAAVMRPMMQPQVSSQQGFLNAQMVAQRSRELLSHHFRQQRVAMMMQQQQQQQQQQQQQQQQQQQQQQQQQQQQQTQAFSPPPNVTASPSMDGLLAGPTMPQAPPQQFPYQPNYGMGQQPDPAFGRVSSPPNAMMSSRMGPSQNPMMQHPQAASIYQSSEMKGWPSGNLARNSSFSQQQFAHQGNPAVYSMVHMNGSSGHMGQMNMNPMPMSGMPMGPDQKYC

Cc1nn(-c2ccccc2)c(C)c1/C=N/NC(=O)c1cc(-c2ccc(Cl)s2)[nH]n1
AC50 (Cytochrome P450 2D6): 25.1 µM (inconclusive)
EC50 [1]: 10.8 µM (active)
AC50 (Cytochrome P450 3A4): inconclusive
EC50 (Streptokinase A): > 150 µM (not active)
EC50 (Streptococcus): 9.32 µM (active)

CSc1cnn(-c2ccccc2)c(=O)c1SC
EC50 [2]: 1.97 µM (active)
EC50 [3]: > 79.4 µM (not active)
EC50 [4]: 1.75 µM (active)

O=C(c1cccc(F)c1)N1CCC2(CC1)CCN(C(c1ccccc1)c1ccccc1)CC2
AC50 (Cytochrome P450 1A2): 10 µM (inconclusive)
AC50 (Cytochrome P450 2C9 [5]): 39.8 µM (inconclusive)
AC50 (Cytochrome P450 3A4): inconclusive

COc1ccc(N2CCN(CCNC(=O)C3CCN(S(=O)(=O)c4cccs4)CC3)CC2)cc1
AC50 (Cytochrome P450 2C9 [5]): 20 µM (inconclusive)
AC50 (Cytochrome P450 2C19): 28.2 µM (inconclusive)
AC50 (Cytochrome P450 3A4): inconclusive

CCCCN(CC)C(=O)CSc1cc(=O)n(C)c2ccccc12
EC50 [2]: > 79.4 µM (inactive)
EC50 [3]: > 79.4 µM (not active)
EC50 [4]: > 79.4 µM (not active)

O=C(O)c1ccc(-c2ccc(OS(=O)(=O)c3ccccc3F)cc2)cc1
IC50 (Caspase-3): > 100 µM (inactive)
IC50 [6]: 35 µM (active)
IC50 [7]: 56.4 µM (active)
IC50 [8]: 6.6 µM (active)

O=C(NCc1ccc(Cl)cc1)c1ccc(Cl)cc1[N+](=O)[O-]
AC50 (Cytochrome P450 1A2): 2.82 µM (inconclusive)
AC50 (Cytochrome P450 2C9 [9]): inconclusive

N=C(NOC(=O)c1cccc(Br)c1)c1ccccn1
AC50 (HEK293): 21.8 µM (active)

Cn1c(=O)n(CC#N)c2ccccc21
AC50 (Cytochrome P450 1A2): 12.6 µM (inconclusive)
EC50 [10]: > 160 µM (inconclusive)
EC50 [11]: 4.1 µM (active)
AC50 (Cytochrome P450 2C9 [9]): inconclusive

CCCCC(=O)NC(c1ccc(OC)c(OC)c1)c1ccc2cccnc2c1O (centres undefined)
AC50 (HEK293): 7.93 µM (active)
AC50 [12]: 1.4 µM (active)
AC50 [13]: 60.1 µM (active)
AC50 [14]: 1.36 µM (active)

Cc1c(C(=O)O)cccc1-c1ccc(/C=C2/NC(=O)N(c3ccccc3)C2=O)o1
IC50 (Caspase-3): > 100 µM (inactive)
IC50 [6]: 28.6 µM (active)
IC50 [7]: 45 µM (active)
IC50 [8]: 21.2 µM (active)

O=c1c(-c2ccccc2)nc2cnc(Oc3ccccc3)nc2n1C1CC1
AC50 (Cytochrome P450 2C19): 25.1 µM (inconclusive)
AC50 (Cytochrome P450 3A4): inconclusive

CCN(CCCNC(=O)CC(C(=O)N1CCc2ccccc21)n1ccnc1)c1ccccc1 (centres undefined)
AC50 (Cytochrome P450 2C9 [9]): inconclusive
